Results: patent US20120016009A1, “Optimized Methods For Delivery Of DSRNA Targeting The PCSK9 Gene” (priority 2008, published 2012)
In the oligonucleotide strings, read from the 5' end, every base follows the letter of its sugar. An asterisk marks phosphorothioate; unmarked linkages are phosphodiester. Other units and linkages are bracketed, terminal groups are in braces. A string of capitals states the bases alone. [Ab] = 3'-terminal abasic nucleotide; e = 2'-O-(2-methoxyethyl) (MOE); d = 2'-deoxy (DNA); m = 2'-O-methyl; r = 2'-OH (RNA); {P} = phosphate; f = 2'-fluoro

Each substance was assayed on PCSK9 mRNA (assay: In vitro screening of modified dsRNAs targeted to PCSK9 (Table 2b; cell type not given)). Conditions: 30 nM siRNA.
Type: cell-based
Protocol: For transfection with siRNA, HuH7, HepG2, or HeLa cells were seeded at a density of 2.0×10^4 cells/well in 96-well plates and transfected directly. Transfection of siRNA (30 nM for single dose screen) was carried out with lipofectamine 2000 (Invitrogen GmbH, Karlsruhe, Germany, cat. No. 11668-019) as described by the manufacturer.
24 hours after transfection HuH7 and HepG2 cells were lysed and PCSK9 mRNA levels were quantified with the Quantigene Explore Kit (Genosprectra, Dumbarton Circle Fremont, USA, cat. No. QG-000-02) according to the protocol. PCSK9 mRNA levels were normalized to GAP-DH mRNA. For each siRNA eight individual datapoints were collected. siRNA duplexes unrelated to PCSK9 gene were used as control. The activity of a given PCSK9 specific siRNA duplex was expressed as percent PCSK9 mRNA concentration in treated cells relative to PCSK9 mRNA concentration in cells treated with the control siRNA duplex.
Tables 1b and 2b (and FIG. 6A) summarize the results and provide examples of in vitro screens in different cell lines at different doses. Silencing of PCSK9 transcript was expressed as percentage of remaining transcript at a given dose.
For “AD-12382: modified dsRNA, SEQ ID NO:1459/1460 (chain 1 rGfCfCfUrGrGrArGfUfUfUrAfUfUfCrGrGrArAdT*dT; chain 2 {P}-fUfUfCfCrGrArAfUrArArAfCfUfCfCrArGrGfCdT*dT)”, the “Remaining mRNA in % of controls at siRNA conc. of 30 nM” value (“Remaining mRNA in % of controls” for short) was 7%.
With “AD-12346: modified dsRNA, SEQ ID NO:1391/1392 (chain 1 fGmCfCmUfGmGfAmGfUmUfUmAfUmUfCmGfGmAfAdT*dT; chain 2 rUrUrCrCrGmAmArUrAmAmArCrUrCrCrAmGmGmC*mC*mU)” the “Remaining mRNA in % of controls” value was 13%.
In the case of “AD-12046: modified dsRNA, SEQ ID NO:1327/1328 (chain 1 rGmCmCmUrGrGrArGmUmUmUrAmUmUmCrGrGrArA; chain 2 rUrUrCrCrGrArArUrArArArCrUrCrCrArGrGrC*mC*mU)”, the “Remaining mRNA in % of controls” value is reported as 13%.
For “AD-12379: modified dsRNA, SEQ ID NO:1453/1454 (chain 1 rGfCfCfUrGrGrArGfUfUfUrAfUfUfCrGrGrArAdT*dT; chain 2 rUrUrCrCrGrArArUrArArArCrUrCrCrArGrGrC*mC*mU)”, the “Remaining mRNA in % of controls” value was 6%.
With “AD-12394: modified dsRNA, SEQ ID NO:1483/1484 (chain 1 rGfCfCfUrGrGrArGrGfUfUfUrAfUfUfCrGrGrArA; chain 2 mUrUmCrCrGrArAmUrArArArCrUmCmCrArGrGrCdT*dT)” the “Remaining mRNA in % of controls” value was 75%.
In the case of “AD-12348: modified dsRNA, SEQ ID NO:1395/1396 (chain 1 rGmCmCmUrGrGrArGmUmUmUrAmUmUmCrGrGrArAdT*dT; chain 2 {P}-mUfUmCfCmGfAmAfUmAfAmAfCmUfCmCfAmGfGmCdT*dT)”, the “Remaining mRNA in % of controls” value is reported as 8%.
In the case of “AD-12356: modified dsRNA, SEQ ID NO:1409/1410 (chain 1 fGmCfCmUfGmGfAmGfUmUfUmAfUmUfCmGfGmAfA; chain 2 mUrUmCrCrGrArAmUrArArArCrUmCmCrArGrGrCdT*dT)”, the “Remaining mRNA in % of controls” value is reported as 25%.
With “AD-12366: modified dsRNA, SEQ ID NO:1429/1430 (chain 1 GCCUGGAGUUUAUUCGGAATT; chain 2 rUrUrCrCrGrArArUrArArArCrUrCrCrArGrGrCdT*dT; chain 1: sugars from the 5' end rerererererererererdd, linkages o19 s1 (s phosphorothioate, o phosphodiester), methylation of C and T or U not given here)” the “Remaining mRNA in % of controls” value was 23%.
“AD-12341: modified dsRNA, SEQ ID NO:1381/1382 (chain 1 fGmCfCmUfGmGfAmGfUmUfUmAfUmUfCmGfGmAfAdT*dT; chain 2 {P}-mUfUmCfCmGfAmAfUmAfAmAfCmUfCmCfAmGfGmCdT*dT)” was tested, and the “Remaining mRNA in % of controls” value was 12%.
“AD-12338: modified dsRNA, SEQ ID NO:1375/1376 (chain 1 fGmCfCmUfGmGfAmGfUmUfUmAfUmUfCmGfGmAfA; chain 2 {P}-mUfUmCfCmGfAmAfUmAfAmAfCmUfCmCfAmGfGmC)” was tested, and the “Remaining mRNA in % of controls” value was 15%.
In the case of “AD-12344: modified dsRNA, SEQ ID NO:1387/1388 (chain 1 fGmCfCmUfGmGfAmGfUmUfUmAfUmUfCmGfGmAfAdT*dT; chain 2 rUrUrCrCrGrArArUrArArArCrUrCrCrArGrGrCdT*dT)”, the “Remaining mRNA in % of controls” value is reported as 9%.
For “AD-12343: modified dsRNA, SEQ ID NO:1385/1386 (chain 1 fGmCfCmUfGmGfAmGfUmUfUmAfUmUfCmGfGmAfAdT*dT; chain 2 mUrUmCrCrGrArAmUrArArArCrUmCmCrArGrGrCdT*dT)”, the “Remaining mRNA in % of controls” value was 24%.
With “AD-12398: modified dsRNA, SEQ ID NO:1491/1492 (chain 1 fGmCfCmUfGmGfAmGfUmUfUmAfUmUfCmGfGmAfAdT*dT; chain 2 {P}-fUfUfCfCrGrArAfUrArArAfCfUfCfCrArGrGfC*fC*fU)” the “Remaining mRNA in % of controls” value was 11%.
With “AD-12368: modified dsRNA, SEQ ID NO:1433/1434 (chain 1 GCCUGGAGUUUAUUCGGAATT; chain 2 rUrUrCrCrGrArAmUrArArArCrUrCmCrArGrGrCdT*dT; chain 1: DNA at T, 2'-MOE at CU, RNA at AG, linkages o19 s1 (s phosphorothioate, o phosphodiester), methylation of C and T or U not given here)” the “Remaining mRNA in % of controls” value was 40%.
“AD-12350: modified dsRNA, SEQ ID NO:1399/1400 (chain 1 fGmCfCmUfGmGfAmGfUmUfUmAfUmUfCmGfGmAfAdTdT[Ab]; chain 2 {P}-mUfUmCfCmGfAmAfUmAfAmAfCmUfCmCfAmGfGmCdTdT[Ab])” was tested, and the “Remaining mRNA in % of controls” value was 17%.
“AD-12400: modified dsRNA, SEQ ID NO:1495/1496 (chain 1 rGrCrCrUrGrGrArGrUrUrUrArUrUrCrGrGrArAdT*dT; chain 2 {P}-fUfUfCfCrGrArAfUrArArAfCfUfCfCrArGrGfC*fC*fU)” was tested, and the “Remaining mRNA in % of controls” value was 12%.
In the case of “AD-12039: modified dsRNA, SEQ ID NO:1313/1314 (chain 1 rGmCmCmUrGrGrArGmUmUmUrAmUmUmCrGrGrArAdT*dT; chain 2 rUmUrCrCrGrArArUrArArArCrUrCrCrArGrGrCdT*dT)”, the “Remaining mRNA in % of controls” value is reported as 29%.
In the case of “AD-12396: modified dsRNA, SEQ ID NO:1487/1488 (chain 1 GCCUGGAGUUUAUUCGGAA; chain 2 UUCCGAAUAAACUCCAGGCCU; chemical modifications, chemistry not fully specified)”, the “Remaining mRNA in % of controls” value is reported as 59%.
In the case of “AD-12371: modified dsRNA, SEQ ID NO:1439/1440 (chain 1 GCCUGGAGUUUAUUCGGAATT; chain 2 {P}-fUfUfCfCrGrArAfUrArArAfCfUfCfCrArGrGfC*fC*fU; chain 1: DNA at T, 2'-MOE at CU, RNA at AG, linkages o19 s1 (s phosphorothioate, o phosphodiester), methylation of C and T or U not given here)”, the “Remaining mRNA in % of controls” value is reported as 60%.
For “AD-12399: modified dsRNA, SEQ ID NO:1493/1494 (chain 1 GCCUGGNAGUUUAUUCGGAATT; chain 2 {P}-fUfUfCfCrGrArAfUrArArAfCfUfCfCrArGrGfC*fC*fU; chain 1: chemistry not given here; further chemistry not fully specified)”, the “Remaining mRNA in % of controls” value was 13%.
In the case of “AD-12381: modified dsRNA, SEQ ID NO:1457/1458 (chain 1 rGfCfCfUrGrGrArGfUfUfUrAfUfUfCrGrGrArAdT*dT; chain 2 {P}-mUfUmCfCmGfAmAfUmAfAmAfCmUfCmCfAmGfGmCdT*dT)”, the “Remaining mRNA in % of controls” value is reported as 10%.
With “AD-12056: modified dsRNA, SEQ ID NO:1347/1348 (chain 1 rGmCrCmUrGmGrAmGrUmUrUmArUmUrCmGrGmArA; chain 2 rUrUrCrCrGrArArUrArArArCrUrCrCrArGrGrCdTdT[Ab])” the “Remaining mRNA in % of controls” value was 11%.
With “AD-12354: modified dsRNA, SEQ ID NO:1405/1406 (chain 1 fGmCfCmUfGmGfAmGfUmUfUmAfUmUfCmGfGmAfA; chain 2 rUrUrCrCrGrArArUrArArArCrUrCrCrArGrGrC*mC*mU)” the “Remaining mRNA in % of controls” value was 11%.
In the case of “AD-12380: modified dsRNA, SEQ ID NO:1455/1456 (chain 1 rGfCfCfUrGrGrArGfUfUfUrAfUfUfCrGrGrArAdT*dT; chain 2 {P}-mUfUmCfCmGfAmAfUmAfAmAfCmUfCmCfAmGfGmC*fC*mU)”, the “Remaining mRNA in % of controls” value is reported as 8%.

These substances were tested on PCSK9 mRNA (assay: PCSK9 siRNA screening in HepG2 cells (lipofectamine 2000 transfection, PCSK9 mRNA by Quantigene, normalized to GAP-DH)). Conditions: 30 nM siRNA.
Type: cell-based, human
In short: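 PCSK9 silencing was assessed in HepG2 cells by lipofectamine 2000 siRNA transfection in 96-well plates. Twenty-four hours later, lysates were analyzed with the Quantigene Explore Kit, with PCSK9 signal normalized to GAP-DH. Eight datapoints were collected per siRNA, and remaining transcript was expressed as a percentage of cells treated with an unrelated control siRNA duplex.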
For “AD-9635: PCSK9 siRNA (sense rGrUrCrUrGrCrCrGrArGrCrCrGrGrArGrCrUrCdT*dT; antisense rGrArGrCrUrCrCrGrGrCrUrCrGrGrCrArGrArCdT*dT)”, the “Mean percent remaining mRNA transcript at siRNA concentration/in cell type 30 nM/HepG2” value was 90%.
In the case of “AD-9536: PCSK9 siRNA (sense rUrUrArUrUrCrGrGrArArArArGrCrCrArGrCrUdT*dT; antisense rArGrCrUrGrGrCrUrUrUrUrCrCrGrArArUrArAdT*dT)”, the “Mean percent remaining mRNA transcript at siRNA concentration/in cell type 30 nM/HepG2” value is reported as 157%.
With “AD-9515: PCSK9 siRNA (sense rGrGrUrArCrCrGrGrGrCrGrGrArUrGrArArUrAdT*dT; antisense rUrArUrUrCrArUrCrCrGrCrCrCrGrGrUrArCrCdT*dT)” the “Mean percent remaining mRNA transcript at siRNA concentration/in cell type 30 nM/HepG2” value was 49%.
With “AD-9631: PCSK9 siRNA (sense rCrUrCrUrGrCrCrArArArGrArUrGrUrCrArUrCdT*dT; antisense rGrArUrGrArCrArUrCrUrUrUrGrGrCrArGrArGdT*dT)” the “Mean percent remaining mRNA transcript at siRNA concentration/in cell type 30 nM/HepG2” value was 80%.
With “AD-9566: PCSK9 siRNA (sense rUrGrCrCrGrGrGrCrCrCrArCrArArCrGrCrUrUdT*dT; antisense rArArGrCrGrUrUrGrUrGrGrGrCrCrCrGrGrCrAdT*dT)” the “Mean percent remaining mRNA transcript at siRNA concentration/in cell type 30 nM/HepG2” value was 38%.
With “AD-9696: PCSK9 siRNA (sense mCmUrGmCmCrGrGrGmCmCmCrAmCrArAmCrGmCmUdT*dT; antisense rArGrCrGrUrUrGrUrGrGrGrCrCrCrGrGmCrArGdT*dT)” the “Mean percent remaining mRNA transcript at siRNA concentration/in cell type 30 nM/HepG2” value was 77%.

Same assay, conditions: 100 nM siRNA
For “AD-9635: PCSK9 siRNA (sense rGrUrCrUrGrCrCrGrArGrCrCrGrGrArGrCrUrCdT*dT; antisense rGrArGrCrUrCrCrGrGrCrUrCrGrGrCrArGrArCdT*dT)”, the “Mean percent remaining mRNA transcript at siRNA concentration/in cell type 100 nM/HepG2” value was 73%.
